The test system of data set [1] is conscious Sprague-Dawley rats. Briefly: i.v. bolus administration of 30 μg nociceptin in conscious rats. The data set is classed as in vivo, rat. Particulars: i.v. bolus 30 μg. The method, then: Abbreviations are HR, heart rate; MAP, mean arterial pressure; V, urine flow rate; and UNa V, urinary sodium excretion. Statistical significance within each group was determined by a repeated measures analysis of variance followed by a Bonferroni multiple comparisons test; asterisks (a, b, or c) denote a significant change (p<0.05) from control within each group.
(§1) Anesthetized male Sprague-Dawley rats (275-300 g, Sprague-Dawley, Inc., Indianapolis, Ind.) were implanted with chronic arterial and venous cannulas and a bladder catheter in accordance with previously published methods (10, 12). For experiments in which drugs were administered i.c.v., a stainless steel cannula was stereotaxically implanted into the right lateral ventricle of rats under anesthesia at least 5-7 days prior to experimentation (11). On the morning of the study rats were placed in a rat holder which permits forward and backward movement and allows for collection of urine from the bladder catheter. Conscious rats were then infused i.v. with isotonic saline (50 μl/min) for the duration of the experiment. The arterial cannulae was then flushed and attached to a pressure transducer (Statham P23Db) and the urinary bladder catheter led to a collection beaker. […]

The target in data set [2] is T1, central kappa-opioid receptors (Rattus norvegicus, UniProt P34975).
T1 construct: Anesthetized male Sprague-Dawley rats; from tissue; host or cells: central nervous system of conscious male Sprague-Dawley rats (in vivo, lateral cerebral ventricle injection)
Briefly: renal responses to i.c.v. peptide in rats pre-treated i.c.v. with nor-binaltorphimine. The conditions noted are these: peptide 10 μg i.c.v.; nor-binaltorphimine 1 μg i.c.v. The data set is classed as in vivo.
Text: Abbreviations are V, urine flow rate and UNa V, urinary sodium excretion.
For comparative purposes, the renal responses produced by central administration of the endogenous opioid peptide, dynorphin A, were also studied i.c.v.
as §1, with “beaker. After equilibration and stabilization of urine flow rate and urinary sodium excretion (approximately 2-3 hours) the experimental protocol described in each figure legend commenced.” for “beaker.”

Data set [3] has as its system isolated rat aortic vascular rings. Briefly: vasorelaxant response of isolated rat aortic rings in vitro precontracted with U46619. The method, then: Aortic rings were precontracted with U46619, a thromboxane A2 mimic.
Rat aortic rings in vitro (with intact endothelium) were precontracted with […], a thromboxane A2 mimic.
Male rats (250-350g) were anesthetized with pentobarbital sodium (30 mg/Kg i.p). The rat lungs were quickly removed and immersed in cold (4° C.) Krebs-Henseleit (K-H) solution (composition mM: NaCl 118, KCl 4.7, CaCl2 2.5, KH2 PO4 1.2, NaHCO3 25, MgSO4 1.2, and dextrose 10). Pulmonary arteries (PA) were isolated and excess fat and connective tissue were removed. Vessels were cut into rings of about 2.5-3 mm in length and were mounted in organ baths containing 5 ml K-H solution. Two stainless steel hooks were inserted into the lumen of the pulmonary artery (PA), one was fixed while the other was connected to a transducer. The tissue bath solution was maintained at 37° C. and bubbled with a 95% O2 -5%CO2 mixture. The pulmonary arteries were equilibrated for 90 min with three changes of K-H solution and an optimal tension of 1 gr. applied. Contractions were measured isometrically with a force displacement transducer (FTO3, Grass, USA) and were recorded on a Grass model 7 polygraph. The contractile ability of each ring was then examined by exposure to 60 mM KCl, then washed and allowed to dilate to baseline tension. […] The integrity of the endothelium was determined by obtaining a maximal vasorelaxant response to ACh. […]

The subject of data set [4] is systemic vascular bed of the anesthetized rat. The experiment in a line: systemic vasodepressor response to bolus i.v. nociceptin in the anesthetized rat. Type of data set: in vivo. Here is the method: N=number of animals. *p<0.05 when compared to corresponding control value.
Male rats (250-300 g) were anesthetized with pentobarbital sodium (30 mg/kg i.p.). Catheters were placed into a femoral artery and femoral vein for measurement of systemic […] blood pressure and administration of drugs, respectively. Cardiac output was calculated by using Columbus 2F thermodilution catheter placed fluoroscopically in the ascending aortic arch assess changes in temperature following a thermal reference injection of saline (0.2 ml) at room temperature into the right atrium via a jugular venous catheter. Changes in systemic arterial pressure were measured using a Gould P23Id pressure transducer and recorded on a Grass Model 7A recorder. Cardiac output was determined using a Columbus Cardiomax thermodilution cardiac output computer.
Values are means +/-SE; N=6. *p,0.05 compared with corresponding control (paired t test).

Data set [5] concerns conscious and pentobarbital-anesthetized rats. Briefly: influence of pentobarbital anesthesia on renal and vascular effects of nociceptin. Type of data set: in vivo, rat. The source says:
N=number of rats. *≤0.05 significant when compared using ANOVA.
N=number of animals. *≤0.05 when ANOVA used statistical comparison.

In data set [6] the test system is intact-chest, anesthetized rats. Briefly: bolus injection into right atrium versus left atrium, systemic arterial pressure (first-pass lung transit). The data set is classed as in vivo, rat. Particulars: inferred from right versus left atrial injection. The source says: Such a hemodynamic profile would be particularly desireable in patients experiencing congestive heart failure since pulmonary vasodilation would be expected to enhance resolution of pulmonary edema and systemic vasodilation (i.e. afterload reduction) would be expected to enhance myocardial performance.

A further data set deals with mice. The conditions noted are these: administration to mice, literature (4,5); cited from earlier work.
The mark [7] stands for this setting: 0.3 ug, i.v. bolus, mean +/- SE, N=6.
Setting [8] is: 1.0 ug, i.v. bolus, mean +/- SE, N=6.
The mark [9] stands for this setting: 3.0 ug, i.v. bolus, mean +/- SE, N=6.

T1 sequence (P34975 whole entry): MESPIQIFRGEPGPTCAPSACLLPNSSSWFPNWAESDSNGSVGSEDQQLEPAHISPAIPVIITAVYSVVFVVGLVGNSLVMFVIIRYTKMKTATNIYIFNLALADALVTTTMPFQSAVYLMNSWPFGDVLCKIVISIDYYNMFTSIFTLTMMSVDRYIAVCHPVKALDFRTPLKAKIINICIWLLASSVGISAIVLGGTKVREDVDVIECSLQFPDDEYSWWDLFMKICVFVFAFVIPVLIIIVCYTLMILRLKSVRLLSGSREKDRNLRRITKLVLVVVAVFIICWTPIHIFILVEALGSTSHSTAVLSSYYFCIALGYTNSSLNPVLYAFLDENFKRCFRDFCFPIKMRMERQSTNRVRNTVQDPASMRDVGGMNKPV

Regarding `CC(C)C[C@H](NC(=O)[C@H](CCCCN)NC(=O)[C@H](CCCN=C(N)N)NC(=O)[C@H](C)NC(=O)[C@H](CO)NC(=O)[C@H](CCCCN)NC(=O)[C@H](CCCN=C(N)N)NC(=O)[C@H](C)NC(=O)CNC(=O)[C@@H](NC(=O)[C@H](Cc1ccccc1)NC(=O)CNC(=O)CNC(=O)[C@@H](N)Cc1ccccc1)[C@@H](C)O)C(=O)N[C@@H](C)C(=O)N[C@@H](CC(N)=O)C(=O)N[C@@H](CCC(N)=O)C(=O)O` [nociceptin], the “cardiovascular and renal parameters” value in data set [1] was “did not alter any cardiovascular or renal parameter”. Moreover, the “effect of i.c.v. nor-binaltorphimine pretreatment on the diuresis and antinatriuresis produced by the peptide” value in data set [2] was “did not alter”. Besides, in data set [3] (endothelial cell removal, methylene blue, L-NAME, L-NIO), the “aortic vasorelaxant response in the presence of inhibitors of nitric oxide formation and function” value was “blocked”. For the same compound, the “vasorelaxant response after cycloxygenase blockade” value in data set [3] (meclofenamate) is listed as “lack of an inhibitory effect”. Also, the “Cardiac Output” value in data set [4] (setting [7]) was 111.3 ± 49.6 mL/min; in data set [4] (setting [8]), 102.8 ± 4.5 mL/min; in data set [4] (setting [9]), 96.8 ± 34.4 mL/min; in data set [4] (bolus i.v. doses) it was “did not significantly alter cardiac output”. The “Systemic Arterial Pressure” value is given as 150.0 +/- 15.5 mmHg in data set [4] (setting [7]); 141.0 +/- 17.8 mmHg in data set [4] (setting [8]); 109.6 +/- 19.8 mmHg in data set [4] (setting [9]); “decreased systemic arterial pressure in a dose-dependant manner” in data set [4] (bolus i.v. injections, pentobarbital-anesthetized rats). Moreover, the entries for the “Systemic Vascular Resistance” value in data set [4] (setting [7]), in data set [4] (setting [8]) and in data set [4] (setting [9]) were 1.1 +/- 0.1 mmHg/ml/min, 1.1 +/- 0.2 mmHg/ml/min and 0.8 +/- 0.1 mmHg/ml/min, respectively. The “systemic vasodepressor response after L-NAME or L-NIO” value in data set [4] (45 min after L-NAME or L-NIO) is “significantly inhibited”. Also, the “systemic vasodepressor response after glybenclamide and meclofenamate” value in data set [4] (bolus i.v. injections, anesthetized rats) was “not inhibited”. Further, the “systemic vasodepressor activity, anesthetized versus conscious rats” value in data set [5] (bolus i.v. injection) is given as “greater systemic vasodepressor activity”. For the same compound, the “ability to increase urinary flow rate (V) under anesthesia” value in data set [5] (rats anesthetized with sodium pentobarbital, i.v. infusion) is “inhibited”. In data set [6], the “first-pass uptake or metabolism in the lung” value is “does not undergo significant first-pass uptake or metabolism”. Further, in the data set with mice, the “response to painful stimuli” value is reported as “hypersensitivity to painful stimuli”.

The values above are taken from patent US5840696A (priority 1997, dated 1998).
